The text below walks through data of patent publication US20240109900A1, “AZABICYCLIC SHP2 INHIBITORS” (IRBM S.P.A., priority 2021, published 2024).

For assay [1], the target named is SHP-2 enzyme (Met1-Leu525) (Homo sapiens (Human), UniProt Q06124). Nature of the assay: SHP2 inhibition enzymatic assay. The class given is biochemical. The following applies: 0.5 nM SHP-2 activated by 500 nM IRS1 peptide, 75 μM DiFMUP substrate; read-out: SHP2wt-IC50. The procedure, abridged:
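Compounds were preincubated 30 min with 0.5 nM SHP-2 (Met1-Leu525) plus 500 nM IRS1 activating peptide (pH 7.2 HEPES, 5 mM DTT), then 75 μM DiFMUP substrate reacted 30 min at room temperature. After bpV quench, DiFMUP fluorescence gave % inhibition; four-parameter logistic fit yielded IC50.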

The subject of assay [2] is ERK phosphorylation in KYSE-520 cells. Nature of the assay: Phospho-ERK cellular assay. The class given is cell-based. The settings on record: KYSE-520 cells, 2 h at 37° C., phospho-ERK1/2 (Thr202/Tyr204) TR-FRET, read-out: PERK IC50. In a few lines:
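TR-FRET read-out of ERK1/2 Thr202/Tyr204 phosphorylation was taken after overnight antibody incubation at room temperature. Before that, KYSE-520 cells were treated 2 h at 37 °C with compound dilutions and lysed 30 min. Percent inhibition relative to vehicle and cell-free wells was fitted four-parametrically to give IC50.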

SMILES strings stand for the structures. Read-outs that look alike come from different tables or passages of the source.

SHP-2 enzyme (Met1-Leu525), sequence (Q06124 1-525): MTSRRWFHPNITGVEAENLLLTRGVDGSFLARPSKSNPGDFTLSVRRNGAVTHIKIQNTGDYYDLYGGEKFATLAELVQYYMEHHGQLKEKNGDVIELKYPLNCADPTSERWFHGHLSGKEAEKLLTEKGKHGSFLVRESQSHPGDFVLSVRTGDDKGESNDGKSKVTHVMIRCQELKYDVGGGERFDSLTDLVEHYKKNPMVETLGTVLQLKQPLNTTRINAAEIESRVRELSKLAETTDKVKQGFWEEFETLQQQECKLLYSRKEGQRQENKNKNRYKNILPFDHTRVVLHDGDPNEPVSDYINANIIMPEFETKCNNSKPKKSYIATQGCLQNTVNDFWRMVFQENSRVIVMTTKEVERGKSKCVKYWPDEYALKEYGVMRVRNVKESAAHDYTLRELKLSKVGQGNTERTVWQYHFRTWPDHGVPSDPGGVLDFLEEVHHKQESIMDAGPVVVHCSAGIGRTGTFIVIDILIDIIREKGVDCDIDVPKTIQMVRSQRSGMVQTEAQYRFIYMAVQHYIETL

As a reminder, the IC50 is the concentration at which inhibition is half-maximal. Consider `Cc1csc(C2(CN)C3CCN(c4cnc5c(-c6cccnc6C(F)(F)F)n[nH]c5n4)CC32)n1` (centres unmarked) [Example 90, (7-(4-methylthiazol-2-yl)-3-(3-(2-(trifluoromethyl)pyridin-3-yl)-1H-pyrazolo[3,4-b]pyrazin-6-yl)-3-azabicyclo[4.1.0]heptan-7-yl)methanamine], for which the IC50 in assay [1] is below 500 nM; in assay [2] (Homo sapiens, KYSE-520, 2 h), below 1000 nM.
In the same order, the values of `CC(C)Oc1ccc(-c2n[nH]c3nc(N4CC[C@@H]5[C@H](C4)[C@@]5(CN)c4ccccc4F)cnc23)c2cccnc12` [Example 138, ((1S,6R,7R)-7-(2-fluorophenyl)-3-(3-(8-isopropoxyquinolin-5-yl)-1H-pyrazolo[3,4-b]pyrazin-6-yl)-3-azabicyclo[4.1.0]heptan-7-yl)methanamine] are below 500 nM and below 1000 nM.
As for `NC[C@]1(c2ccccc2F)[C@@H]2CCN(c3cnc(Sc4ccc5nccnc5c4Cl)c(N)n3)C[C@@H]21` [Example 523, 6-((1S,6R,7R)-7-(aminomethyl)-7-(2-fluorophenyl)-3-azabicyclo[4.1.0]heptan-3-yl)-3-((5-chloroquinoxalin-6-yl)thio)pyrazin-2-amine], the IC50 in assay [1] was below 500 nM; in assay [2] (Homo sapiens, KYSE-520, 2 h) it was below 1000 nM.
In the same order, the values of `Cc1csc(C2(CN)C3CCN(c4cnc5c(-c6cccc7c6OCO7)n[nH]c5n4)CC32)n1` (centres unmarked) [Example 91, (3-(3-(Benzo[d][1,3]dioxol-4-yl)-1H-pyrazolo[3,4-b]pyrazin-6-yl)-7-(4-methylthiazol-2-yl)-3-azabicyclo[4.1.0]heptan-7-yl)methanamine] are below 500 nM and below 1000 nM.
For `Cc1c(-c2n[nH]c3nc(N4CC[C@@H]5[C@H](C4)[C@@]5(CN)c4ccccc4F)cnc23)ccc2nccnc12` [Example 222, ((1S,6R,7R)-7-(2-fluorophenyl)-3-(3-(5-methylquinoxalin-6-yl)-1H-pyrazolo[3,4-b]pyrazin-6-yl)-3-azabicyclo[4.1.0]heptan-7-yl)methanamine] the same measures were below 500 nM and below 1000 nM.
In the same order, the values of `NC[C@]1(c2ccccc2F)[C@@H]2CCN(c3cnc4c(-c5ccnc(NC6CC6)c5Cl)n[nH]c4n3)C[C@@H]21` [Example 197, 4-(6-((1S,6R,7R)-7-(aminomethyl)-7-(2-fluorophenyl)-3-azabicyclo[4.1.0]heptan-3-yl)-1H-pyrazolo[3,4-b]pyrazin-3-yl)-3-chloro-N-cyclopropylpyridin-2-amine] are below 500 nM and below 1000 nM.
`Cn1cc2c(Cl)c(-c3n[nH]c4nc(N5C[C@@H]6[C@H](C5)[C@@]6(CN)c5nc(C(F)(F)F)cs5)cnc34)ccc2n1` [Example 488, ((1R,5S,6r)-3-(3-(4-chloro-2-methyl-2H-indazol-5-yl)-1H-pyrazolo[3,4-b]pyrazin-6-yl)-6-(4-(trifluoromethyl)thiazol-2-yl)-3-azabicyclo[3.1.0]hexan-6-yl)methanamine]: the 50% inhibitory concentration (IC50) in assay [1] was below 500 nM; in assay [2] (Homo sapiens, KYSE-520, 2 h), below 1000 nM.
For `Cc1csc([C@@]2(CN)[C@@H]3CN(c4cnc5c(-c6ccc7nn(C)cc7c6Cl)n[nH]c5n4)C[C@@H]32)n1` [Example 457, ((1R,5S,6r)-3-(3-(4-chloro-2-methyl-2H-indazol-5-yl)-1H-pyrazolo[3,4-b]pyrazin-6-yl)-6-(4-methylthiazol-2-yl)-3-azabicyclo[3.1.0]hexan-6-yl)methanamine] the same measures were below 500 nM and below 1000 nM.
Take `NCC1(c2cccc(F)c2)C2CCN(c3nc4[nH]nc(-c5ccccc5)c4nc3CO)CC21` (centres unmarked) [Example 56, (6-(7-(aminomethyl)-7-(3-fluorophenyl)-3-azabicyclo[4.1.0]heptan-3-yl)-3-phenyl-1H-pyrazolo[3,4-b]pyrazin-5-yl)methanol]: the IC50 was below 500 nM in assay [1] and below 1000 nM in assay [2] (Homo sapiens, KYSE-520, 2 h).
For `Cc1csc([C@@]2(CN)[C@@H]3CN(c4cnc5c(-c6ccc7nn(CC(F)(F)F)cc7c6Cl)n[nH]c5n4)C[C@@H]32)n1` [Example 518], the IC50 in assay [1] was below 500 nM; in assay [2], below 1000 nM.
Turning to `Cn1ccc(Oc2ccc(-c3n[nH]c4nc(N5CC[C@@H]6[C@H](C5)[C@@]6(CN)c5ccccc5F)cnc34)c(Cl)c2Cl)n1` [Example 215, ((1S,6R,7R)-3-(3-(2,3-dichloro-4-((1-methyl-1H-pyrazol-3-yl)oxy)phenyl)-1H-pyrazolo[3,4-b]pyrazin-6-yl)-7-(2-fluorophenyl)-3-azabicyclo[4.1.0]heptan-7-yl)methanamine], the IC50 in assay [1] is below 500 nM; in assay [2] (Homo sapiens, KYSE-520, 2 h), below 1000 nM.
In the same order, the values of `Cn1cc2c(C3CC3)c(-c3n[nH]c4nc(N5CC[C@@H]6[C@H](C5)[C@@]6(CN)c5ccccc5F)cnc34)ccc2n1` [Example 194, ((1S,6R,7R)-3-(3-(4-cyclopropyl-2-methyl-2H-indazol-5-yl)-1H-pyrazolo[3,4-b]pyrazin-6-yl)-7-(2-fluorophenyl)-3-azabicyclo[4.1.0]heptan-7-yl)methanamine] are below 500 nM and below 1000 nM.
In the same order, the values of `CC(=O)Oc1c(F)cc(-c2n[nH]c3nc(N4CC[C@@H]5[C@H](C4)[C@@]5(CN)c4ccccc4F)cnc23)cc1F` [Example 359, 4-(6-((1S,6R,7R)-7-(aminomethyl)-7-(2-fluorophenyl)-3-azabicyclo[4.1.0]heptan-3-yl)-1H-pyrazolo[3,4-b]pyrazin-3-yl)-2,6-difluorophenyl acetate] are below 500 nM and below 1000 nM.
In the same order, the values of `Cn1cc2c(Cl)c(-c3n[nH]c4nc(N5C[C@@H]6[C@H](C5)[C@@]6(CN)c5ccccc5)cnc34)ccc2n1` [Example 453, ((1R,5S,6s)-3-(3-(4-chloro-2-methyl-2H-indazol-5-yl)-1H-pyrazolo[3,4-b]pyrazin-6-yl)-6-phenyl-3-azabicyclo[3.1.0]hexan-6-yl)methanamine] are below 500 nM and below 1000 nM.
For `NC[C@]1(c2ccccc2F)[C@@H]2CCN(c3cnc4c(-c5cccc6c5CC(=O)N6)n[nH]c4n3)C[C@@H]21` [Example 122, 4-(6-((1S,6R,7R)-7-(aminomethyl)-7-(2-fluorophenyl)-3-azabicyclo[4.1.0]heptan-3-yl)-1H-pyrazolo[3,4-b]pyrazin-3-yl)indolin-2-one], the concentration for half-maximal inhibition (IC50) in assay [1] was below 500 nM; in assay [2] (Homo sapiens, KYSE-520, 2 h), below 1000 nM.
Turning to `Cc1csc(C2(CN)[C@@H]3CN(c4cnc5c(-c6ccc7c(cnn7C)c6Cl)n[nH]c5n4)C[C@@H]32)n1` (some centres unmarked) [Example 480], the results for the IC50 in assay [1] and in assay [2] were below 500 nM and below 1000 nM, respectively.
As for `Cc1cc([C@@]2(CN)[C@@H]3CCN(c4cnc5c(-c6ccc7nc(C)sc7c6Cl)n[nH]c5n4)C[C@@H]32)no1` [Example 107, ((1S,6R,7S)-3-(3-(7-chloro-2-methylbenzo[d]thiazol-6-yl)-1H-pyrazolo[3,4-b]pyrazin-6-yl)-7-(5-methylisoxazol-3-yl)-3-azabicyclo[4.1.0]heptan-7-yl)methanamine], the IC50 in assay [1] was below 500 nM; in assay [2] (Homo sapiens, KYSE-520, 2 h) it was below 1000 nM.
In the same order, the values of `Cc1cc2ncccc2cc1-c1n[nH]c2nc(N3CC[C@@H]4[C@H](C3)[C@@]4(CN)c3ccccc3F)cnc12` [Example 171, ((1S,6R,7R)-7-(2-fluorophenyl)-3-(3-(7-methylquinolin-6-yl)-1H-pyrazolo[3,4-b]pyrazin-6-yl)-3-azabicyclo[4.1.0]heptan-7-yl)methanamine] are below 500 nM and below 1000 nM.
Regarding `NCC1(c2ccsc2)C2CCN(c3cnc4c(-c5ccnc(C(F)(F)F)c5)n[nH]c4n3)CC21` (centres unmarked) [Example 95, (7-(thiophen-3-yl)-3-(3-(2-(trifluoromethyl)pyridin-4-yl)-1H-pyrazolo[3,4-b]pyrazin-6-yl)-3-azabicyclo[4.1.0]heptan-7-yl)methanamine], the IC50 in assay [1] is below 500 nM; in assay [2] (Homo sapiens, KYSE-520, 2 h) it was 1000 to 5000 nM.
For `Cc1csc([C@@]2(CN)[C@@H]3CN(c4cnc5nc(Sc6ccnc(N)c6Cl)ccc5n4)C[C@@H]32)n1` [Example 497, 4-((2-((1R,5S,6r)-6-(aminomethyl)-6-(4-methylthiazol-2-yl)-3-azabicyclo[3.1.0]hexan-3-yl)pyrido[2,3-b]pyrazin-6-yl)thio)-3-chloropyridin-2-amine] the same measures were below 500 nM and below 1000 nM.
In the same order, the values of `NC[C@]1(c2ccccc2F)[C@@H]2CCN(c3cnc4c(-c5ccnc(N6CC[C@H](CO)C6)c5Cl)n[nH]c4n3)C[C@@H]21` [Example 386, ((S)-1-(4-(6-((1S,6R,7R)-7-(aminomethyl)-7-(2-fluorophenyl)-3-azabicyclo[4.1.0]heptan-3-yl)-1H-pyrazolo[3,4-b]pyrazin-3-yl)-3-chloropyridin-2-yl)pyrrolidin-3-yl)methanol] are below 500 nM and below 1000 nM.
For `NC[C@]1(c2ccccc2F)[C@@H]2CCN(c3cnc4c(-c5cccc6c5CCC(=O)N6)n[nH]c4n3)C[C@@H]21` [Example 293, 5-(6-((1S,6R,7R)-7-(aminomethyl)-7-(2-fluorophenyl)-3-azabicyclo[4.1.0]heptan-3-yl)-1H-pyrazolo[3,4-b]pyrazin-3-yl)-3,4-dihydroquinolin-2(1H)-one], the concentration for half-maximal inhibition (IC50) was below 500 nM in assay [1] and below 1000 nM in assay [2] (Homo sapiens, KYSE-520, 2 h).
